According to article PMC6277767, “Broad and Region-Specific Impacts of the Synthetic Cannabinoid CP 55,940 in Adolescent and Adult Female Mouse Brains” (Frontiers in Molecular Neuroscience, 2018):

Test system: CD1 female mouse brain lipidome
Assay: Brain-region lipid levels (HPLC/MS/MS lipidomics) 2 h after single i.p. 3 mg/kg CP 55,940 vs vehicle
Assay type: in vivo
Conditions: hippocampus
Experimental: The Bloomington Institutional Animal Care and Use Committee of Indiana University reviewed and approved the animal procedures. Female mice from the CD1 strain were utilized to match our study examining THC’s effects on the brain lipidome ([Leishman et al., 2018]). Mice were given a single i.p. injection of either 3 mg/kg CP or 1:1:18 cremophor:ethanol:saline vehicle (please refer to the section “3 mg/kg CP Is Relevant for Synthetic Cannabinoid Abuse and Has Stronger Effects on the Female Mouse Brain Lipidome During Adolescence” for a justification of dose and use of female mice). Three different age groups were given injections: PND 35 and PND 50 adolescents, and adult mice (PND 113). At least eight mice in each age group received CP and at least eight received vehicle. Matching the THC study time course ([Leishman et al., 2018]), mice were sacrificed via rapid decapitation 2 h after injection. Brains were immediately removed and flash-frozen in liquid nitrogen, and then stored at -80°C until dissections were performed. Brains were dissected on an ice-cold dissection plate into the following regions: STR, HIPP, CER, THAL, CTX, HYP, MID, and STEM. These abbreviations for these brain areas will be used exclusively when discussing the results generated by these specific dissections. Each dissected area was immediately placed in liquid nitrogen and then stored at -80°C until used for lipid extraction.
Tissue extracts were performed as previously described ([Bradshaw et al., 2006]; [Stuart et al., 2013]; [Raboune et al., 2014]; [Leishman et al., 2016a],[b], [2017], [2018]). First, samples were shock frozen in liquid nitrogen, weighed, and transferred to a centrifuge tube. The mass of the largest sample was multiplied by 50 to determine how many milliliters of HPLC-grade methanol (Fisher, Fair Lawn, NJ, United States) to add. Then, samples were spiked with 500 pmol deuterium-labeled NAGly (d8NAGly; Cayman Chemical, Ann Arbor, MI, United States). Samples were placed on ice in darkness for 2 h then individually homogenized and centrifuged at 19,000 × g for 20 min at 20°C. Supernatants were diluted with HPLC water (purified in house) to make a solution of 75% water, 25% supernatant. Lipids were partially purified on C18 solid phase extraction columns (Agilent, Palo Alto, CA, United States). A series of four elutions with 1.5 mL of 60%, 75%, 85%, and 100% methanol were collected ([Stuart et al., 2013]; [Leishman et al., 2016a],[b], [2018]).
As previously described ([Bradshaw et al., 2006]; [Tan et al., 2006]; [Smoum et al., 2010]; [Stuart et al., 2013]; [Tortoriello et al., 2013]; [Raboune et al., 2014]; [Leishman et al., 2016a],[b], [2017], [2018]), samples were analyzed using an Applied Biosystems API 3000 triple quadrupole mass spectrometer with electrospray ionization (Foster City, CA, United States). Using an Agilent XDB-C18 reversed phase analytical column and optimized mobile phase gradients, 20 μL from each elution were chromatographed. Two Shimadzu 10ADvp pumps (Columbia, MD, United States) provided the pressure for gradient elution. Mobile phase A: 20% methanol, 80% water (v/v) and 1 mM ammonium acetate (Sigma, St. Louis, MO, United States). Mobile phase B: 100% methanol, 1 mM ammonium acetate. Every method run began with 0% mobile phase B, reached 100% mobile phase B flowing at 0.2 mL/min, and gradually returned to 0% mobile phase B.
This screening library will be referred to as the lipidome when discussing data from this study. HPLC/MS/MS data were analyzed using Analyst software (Applied Biosystems) ([Bradshaw et al., 2006]; [Tan et al., 2006]; [Stuart et al., 2013]; [Tortoriello et al., 2013]; [Raboune et al., 2014]; [Leishman et al., 2016a],[b], [2017], [2018]). Chromatograms (Supplementary Figure 3) were generated by determining the retention time of analytes from the analytical column with a [M-1] or [M+1] parent peak and a fragmentation peak corresponding to the programmed values. […]

[1] = PND 50, 3 mg/kg CP 55,940 vs Veh
[2] = PND 50 female mice, 3mg/kg CP 55,940, mean

CCCCCCC(C)(C)c1ccc([C@@H]2C[C@H](O)CC[C@H]2CCCO)c(O)c1 [CP 55,940] was tested. Which “Linoleic acid, Magnitude (x Veh level)” value [1] did it give?
Its value is 0.73 x Veh level.

What about the “N-arachidonoyl alanine Magnitude (x Veh level)” value [1] of the same molecule?
The value was 0.71 x Veh level.

What about the “N-arachidonoyl alanine, Direction (relative to Veh)” value [1] of the same molecule?
The value was “↓”.

And the “N-arachidonoyl ethanolamine, Direction (relative to Veh)” value [1]?
The value was “↓”.

What about the “N-arachidonoyl ethanolamine, Magnitude (x Veh level)” value [1] of the same molecule?
The value was 0.64 x Veh level.

And the “N-arachidonoyl glycine Direction (relative to Veh)” value [1]?
Its value is “↓”.

And the “N-arachidonoyl glycine Magnitude (x Veh level)” value [1]?
The value was 0.52 x Veh level.

What about the “N-arachidonoyl serine Direction (relative to Veh)” value [1] of the same molecule?
Its value is “↓”.

What about the “N-arachidonoyl serine Magnitude (x Veh level)” value [1] of the same molecule?
The value was 0.51 x Veh level.

And the “N-arachidonoyl taurine Direction (relative to Veh)” value [1]?
The value was “↓”.

What about the “N-arachidonoyl taurine Magnitude (x Veh level)” value [1] of the same molecule?
The value was 0.69 x Veh level.

What about the “N-arachidonoyl tyrosine, Direction (relative to Veh)” value [1] of the same molecule?
Its value is “↑”.

What about the “N-arachidonoyl tyrosine, Magnitude (x Veh level)” value [1] of the same molecule?
Its value is 1.38 x Veh level.

And the “N-docosahexaenoyl ethanolamine, Direction (relative to Veh)” value [1]?
The value was “↓”.

What about the “N-docosahexaenoyl ethanolamine, Magnitude (x Veh level)” value [1] of the same molecule?
The value was 0.73 x Veh level.

And the “N-linoleoyl ethanolamine, Direction (relative to Veh)” value [1]?
The value was “↓”.

What about the “N-linoleoyl ethanolamine, Magnitude (x Veh level)” value [1] of the same molecule?
The value was 0.65 x Veh level.

What about the “N-linoleoyl serine Direction (relative to Veh)” value [1] of the same molecule?
The value was “↑”.

What about the “N-linoleoyl serine Magnitude (x Veh level)” value [1] of the same molecule?
Its value is 1.32 x Veh level.

And the “N-oleoyl leucine Direction (relative to Veh)” value [1]?
The value was “↓”.

And the “N-oleoyl leucine Magnitude (x Veh level)” value [1]?
The value was 0.77 x Veh level.

What about the “N-oleoyl serine, Direction (relative to Veh)” value [1] of the same molecule?
The value was “↑”.

What about the “N-oleoyl serine, Magnitude (x Veh level)” value [1] of the same molecule?
The value was 1.27 x Veh level.

And the “PGE2 Direction (relative to Veh)” value [1]?
The value was “↑”.

What about the “PGE2 Magnitude (x Veh level)” value [1] of the same molecule?
Its value is 1.15 x Veh level.

What about the “PGF2α Direction (relative to Veh)” value [1] of the same molecule?
The value was “↑”.

And the “PGF2α Magnitude (x Veh level)” value [1]?
The value was 1.22 x Veh level.

What about the 2-arachidonoyl glycerol level [2] of the same molecule?
The 2-arachidonoyl glycerol level was 2.77E-09.

What about the 2-linoleoyl glycerol level [2] of the same molecule?
Its 2-linoleoyl glycerol level is 1.81E-10.

And the 2-oleoyl glycerol level [2]?
Its 2-oleoyl glycerol level is 1.71E-09.

What about the 2-palmitoyl glycerol level [2] of the same molecule?
Its 2-palmitoyl glycerol level is 2.49E-10.

What about the 6-ketoPGF1α level [2] of the same molecule?
The 6-ketoPGF1α level was 6.15E-11.

And the 11-OH-THC level [2]?
Its 11-OH-THC level is “BDL”.

What about the 11-nor-9-carboxyTHC level [2] of the same molecule?
The 11-nor-9-carboxyTHC level was “BDL”.

What about the Arachidonic acid level [2] of the same molecule?
The Arachidonic acid level was 1.73E-09.

And the Cannabidiol level [2]?
Its Cannabidiol level is “BDL”.

What about the Linoleic acid level [2] of the same molecule?
The Linoleic acid level was 5.21E-10.

And the “N-arachidonoyl GABA level” value [2]?
The value was 2.39E-11.

And the N-arachidonoyl alanine level [2]?
Its N-arachidonoyl alanine level is 1.94E-12.

What about the N-arachidonoyl dopamine level [2] of the same molecule?
The N-arachidonoyl dopamine level was “BDL”.

And the N-arachidonoyl ethanolamine level [2]?
Its N-arachidonoyl ethanolamine level is 2.58E-11.

What about the N-arachidonoyl glycine level [2] of the same molecule?
The N-arachidonoyl glycine level was 4.78E-13.

What about the N-arachidonoyl proline level [2] of the same molecule?
The N-arachidonoyl proline level was “BDL”.

What about the N-arachidonoyl serine level [2] of the same molecule?
Its N-arachidonoyl serine level is 5.36E-13.

What about the N-arachidonoyl taurine level [2] of the same molecule?
The N-arachidonoyl taurine level was 8.7E-11.

And the N-arachidonoyl tryptophan level [2]?
The N-arachidonoyl tryptophan level was “BDL”.

And the N-arachidonoyl tyrosine level [2]?
Its N-arachidonoyl tyrosine level is 2.3E-12.

What about the N-docosahexaenoyl ethanolamine level [2] of the same molecule?
Its N-docosahexaenoyl ethanolamine level is 1.92E-11.

And the N-docosahexaenoyl glycine level [2]?
Its N-docosahexaenoyl glycine level is 5.66E-14.

And the N-docosahexaenoyl methionine level [2]?
The N-docosahexaenoyl methionine level was “BDL”.

And the N-docosahexaenoyl proline level [2]?
The N-docosahexaenoyl proline level was “BDL”.

What about the N-docosahexaenoyl tryptophan level [2] of the same molecule?
The N-docosahexaenoyl tryptophan level was “BDL”.

And the N-docosahexaenoyl valine level [2]?
Its N-docosahexaenoyl valine level is “BDL”.

What about the N-linoleoyl ethanolamine level [2] of the same molecule?
The N-linoleoyl ethanolamine level was 2.31E-11.

What about the N-linoleoyl glycine level [2] of the same molecule?
The N-linoleoyl glycine level was 8.35E-14.

And the N-linoleoyl methionine level [2]?
The N-linoleoyl methionine level was “BDL”.

And the N-linoleoyl proline level [2]?
The N-linoleoyl proline level was “BDL”.

And the N-linoleoyl serine level [2]?
Its N-linoleoyl serine level is 7.96E-11.

And the N-linoleoyl tryptophan level [2]?
Its N-linoleoyl tryptophan level is “BDL”.

What about the N-linoleoyl valine level [2] of the same molecule?
The N-linoleoyl valine level was “BDL”.

What about the N-nervonoyl valine level [2] of the same molecule?
Its N-nervonoyl valine level is “BDL”.

And the “N-oleoyl GABA level” value [2]?
Its value is 1.53E-11.

What about the N-oleoyl alanine level [2] of the same molecule?
The N-oleoyl alanine level was 2.17E-12.

And the N-oleoyl dopamine level [2]?
The N-oleoyl dopamine level was “BDL”.

And the N-oleoyl ethanolamine level [2]?
Its N-oleoyl ethanolamine level is 8.7E-11.

And the N-oleoyl glycine level [2]?
The N-oleoyl glycine level was 1.25E-13.

What about the N-oleoyl leucine level [2] of the same molecule?
Its N-oleoyl leucine level is 7.72E-13.

What about the N-oleoyl phenylalanine level [2] of the same molecule?
The N-oleoyl phenylalanine level was 1.52E-13.

What about the N-oleoyl proline level [2] of the same molecule?
Its N-oleoyl proline level is “BDL”.

What about the N-oleoyl serine level [2] of the same molecule?
Its N-oleoyl serine level is 4.19E-10.

And the N-oleoyl tryptophan level [2]?
Its N-oleoyl tryptophan level is “BDL”.

And the “N-palmitoyl GABA level” value [2]?
The value was 1.72E-11.

And the N-palmitoyl alanine level [2]?
The N-palmitoyl alanine level was 2.35E-12.

What about the N-palmitoyl ethanolamine level [2] of the same molecule?
The N-palmitoyl ethanolamine level was 2.9E-11.

And the N-palmitoyl glycine level [2]?
Its N-palmitoyl glycine level is 5.47E-12.

And the N-palmitoyl leucine level [2]?
Its N-palmitoyl leucine level is 1.17E-12.

What about the N-palmitoyl methionine level [2] of the same molecule?
The N-palmitoyl methionine level was 9.9E-12.

And the N-palmitoyl phenylalanine level [2]?
Its N-palmitoyl phenylalanine level is 9.31E-14.

What about the N-palmitoyl proline level [2] of the same molecule?
The N-palmitoyl proline level was “BDL”.

What about the N-palmitoyl serine level [2] of the same molecule?
The N-palmitoyl serine level was 1.51E-11.

And the N-palmitoyl tryptophan level [2]?
The N-palmitoyl tryptophan level was “BDL”.

And the N-palmitoyl tyrosine level [2]?
Its N-palmitoyl tyrosine level is 9.92E-13.

What about the “N-stearoyl GABA level” value [2] of the same molecule?
Its value is 1.36E-11.

And the N-stearoyl alanine level [2]?
Its N-stearoyl alanine level is 2.21E-12.

And the N-stearoyl ethanolamine level [2]?
The N-stearoyl ethanolamine level was 1.21E-11.

And the N-stearoyl glycine level [2]?
Its N-stearoyl glycine level is 2.09E-12.

And the N-stearoyl leucine level [2]?
The N-stearoyl leucine level was 1.45E-12.

And the N-stearoyl phenylalanine level [2]?
The N-stearoyl phenylalanine level was 9.22E-14.

And the N-stearoyl proline level [2]?
The N-stearoyl proline level was “BDL”.

And the N-stearoyl serine level [2]?
Its N-stearoyl serine level is 3.94E-11.

What about the N-stearoyl tryptophan level [2] of the same molecule?
Its N-stearoyl tryptophan level is “BDL”.

What about the Oleic acid level [2] of the same molecule?
Its Oleic acid level is 5.52E-10.

What about the PGE2 level [2] of the same molecule?
Its PGE2 level is 5.28E-10.

And the PGF2α level [2]?
The PGF2α level was 3.99E-10.

What about the PhosphoLEA level [2] of the same molecule?
The PhosphoLEA level was 9.47E-12.

And the THC level [2]?
The THC level was “BDL”.

What about the “2-arachidonoyl glycerol level, Mean” value (adult, 3 mg/kg CP 55,940) of the same molecule?
The value was 2.63E-09.

And the “2-linoleoyl glycerol level, Mean” value (adult, 3 mg/kg CP 55,940)?
The value was 1.64E-10.

What about the “2-linoleoyl glycerol: Direction (relative to Veh)” value (adult, 3 mg/kg CP 55,940) of the same molecule?
The value was “↓”.

What about the “2-linoleoyl glycerol: Magnitude (x Veh level)” value (adult, 3 mg/kg CP 55,940) of the same molecule?
The value was 0.74 x Veh level.

What about the “2-oleoyl glycerol level, Mean” value (adult, 3 mg/kg CP 55,940) of the same molecule?
The value was 1.58E-09.

What about the “2-palmitoyl glycerol level, Mean” value (adult, 3 mg/kg CP 55,940) of the same molecule?
Its value is 1.43E-10.
